Measured values from publication PMC3076939 (Biochemistry, 2011).

How the values were obtained:
[1] = molecular target: DPP4 (Mus musculus, UniProt P28843); format: biochemical
[2] = system: C-terminal processing of PHI(1–27); format: biochemical, mouse; conditions: PHI(1–27) with membrane lysate 1 mg/mL in PBS, 37 °C, 15 min, LC-MS; o-phenanthroline 1 mM, phosphoamidon 10 µM
[3] = plasma; conditions: cited from earlier work
[4] = human plasma; conditions: cited from earlier work

DPP4, sequence (P28843 whole entry): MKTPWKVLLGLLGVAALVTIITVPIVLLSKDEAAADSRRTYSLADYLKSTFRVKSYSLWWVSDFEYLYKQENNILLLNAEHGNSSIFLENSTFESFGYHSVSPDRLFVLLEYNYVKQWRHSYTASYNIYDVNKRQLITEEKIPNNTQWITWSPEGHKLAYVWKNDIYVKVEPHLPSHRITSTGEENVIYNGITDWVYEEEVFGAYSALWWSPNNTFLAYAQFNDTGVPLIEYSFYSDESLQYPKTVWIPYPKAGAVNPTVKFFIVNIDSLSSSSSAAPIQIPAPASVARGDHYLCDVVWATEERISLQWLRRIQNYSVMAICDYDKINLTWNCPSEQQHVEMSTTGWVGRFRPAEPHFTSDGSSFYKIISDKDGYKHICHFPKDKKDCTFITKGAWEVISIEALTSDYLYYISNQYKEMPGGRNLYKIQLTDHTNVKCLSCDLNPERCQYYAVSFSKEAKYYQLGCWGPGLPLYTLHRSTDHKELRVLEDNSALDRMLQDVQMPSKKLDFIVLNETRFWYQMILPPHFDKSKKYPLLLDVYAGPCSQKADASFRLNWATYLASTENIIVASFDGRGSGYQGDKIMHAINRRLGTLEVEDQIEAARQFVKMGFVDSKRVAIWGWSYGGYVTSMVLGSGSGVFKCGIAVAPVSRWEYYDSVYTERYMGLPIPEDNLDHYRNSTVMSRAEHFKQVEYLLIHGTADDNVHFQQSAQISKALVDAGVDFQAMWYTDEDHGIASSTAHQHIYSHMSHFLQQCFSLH

Compound | effect on C-terminal processing of PHI(1–27) (PHI(1–22) production) [2] | also measured
O=S(=O)(F)Cc1ccccc1 [PMSF, phenylmethylsulfonyl fluoride] |  | inhibition of the production of PHI(3–27) (N-terminal processing) [1]: strongly inhibited the production of PHI(3–27)
CC(C)C[C@H](NP(=O)(O)O[C@@H]1O[C@@H](C)[C@H](O)[C@@H](O)[C@H]1O)C(=O)N[C@@H](Cc1c[nH]c2ccccc12)C(=O)O [phosphoramidon] | no impact | 
HAEGTFTSDVSSYLEGQAAKEFIAWLVKGRG-CONH2 |  | fragment found [3]: GLP-1(9–36), major; fragment found [4]: GLP-1(9–36)
CNC(=O)[C@H](Cc1c[nH]c2ccccc12)NC(=O)[C@@H](CC(=O)NO)CC(C)C [GM6001] | no impact | 
c1cnc2c(c1)ccc1cccnc12 [1,10-phenanthroline] | reducing the production of PHI(1–22) | 
